Laboratory results taken from patent publication US7595300B2, “7-quinolyl ketolide antibacterial agents” (priority 2005, dated 2009).
Values after ≈ are worked out from the molar mass of the structure shown.

Assays:
P. acnes = assay: MIC, NCCLS Reference Agar Dilution Method for anaerobic bacteria; assay type: cell-based, Propionibacterium acnes
Experimental: Minimum inhibitory concentrations (“MICs”) were determined by the NCCLS Reference Agar Dilution Method (M11-A5, Vol. 21, No. 2) for anaerobic bacteria. A panel of 84 antibiotic-susceptible and resistant strains of Propionibacteria from distinct geographic locations were selected. Following revival from frozen stocks, each strain was purity plated onto Wilkins Chalgren Agar, pH 7.2 (Oxoid, UK), and the appropriate antibiotic resistance/susceptibility phenotype was confirmed by antibiotic disc testing. Each strain was subjected to an agar dilution MIC assay. […] The inocula for each batch of strains were prepared from 7-day old Wilkins Chalgren Agar plate cultures by resuspension of colonies in Wilkins Chalgren Anaerobe broth, pH 7.2 (Oxoid, UK) to an optical density (OD600) of 0.2±0.02. The inoculum (1.0-2.0 μL) for each strain was applied to a Wilkins Chalgren Agar MIC plate in a grid pattern using a Multipoint Inoculator (Denley, UK). All agar plates were incubated at 37° C. for 3 days under anaerobic conditions in AnaeroPack 7 liter rectangular jars (Mitsubishi Gas Chemical Company, Inc., Japan).

male beagle dogs = assay: Cardiovascular safety in telemetered dogs, intravenous infusion; assay type: in vivo, dog
Source text: Four male beagle dogs, obtained from Marshall Farms USA, Inc. (North Rose, N.Y.), were surgically instrumented with telemetry transducers (Data Sciences International, type RL11M2-D70-PCT) to assess arterial blood pressure (ABP) and lead II electrocardiogram (ECG) parameters.
The dosing route was an intravenous infusion jugular vein access). The infusion was accomplished using a CADD Prizm® ambulatory infusion pump attached to a jacket worn by the dog. The dose duration for the intravenous infusion was 30 min for all doses administered, except the last dose (30 mg/kg) where the infusion period was extended to 45 min to accommodate the larger dose volume required for this dose. The vehicle dose and diluent for the test article was 0.05-M sodium citrate in sterile water for injection.
There was one treatment group of four non-naïve dogs and the study was comprised of both pharmacokinetic and telemetry phases, as summarized in the dose administration table for compound (III) (Table 16) below. At least one week was given between dosings to allow clearance of the drug.
For the telemetry phase of the study, collection of hemodynamic and lead II ECG data commenced approximately 30 min prior to dosing and ended approximately 6 h post-dose. Systolic blood pressure (SBP), diastolic blood pressure (DBP), HR, and lead II ECG variables (PR interval, QRS duration, RR interval, and QT interval) were acquired continuously from each animal during each dose day recording session. The QT interval was corrected for variations in HR using the Fridericia's QTc interval (QTcF).
Data acquired following treatment with vehicle or compound (III) were extracted at −10, −5, 0, 10, 20, 30, 35, 45, 60, 90, 150, 270, and 390 min relative to the start dose time. For all blood pressure and ECG parameters, data following treatment with compound (III) were compared to the time-matched vehicle dose data. Statistical comparisons were made using a one-way ANOVA for repeated measures, followed by the Dunnett's post-hoc test when statistical significance was detected with the ANOVA. Changes were considered statistically significant when p<0.05.
A complete visual scan of the ECG waveforms from the vehicle, 11 mg/kg dose, and 15 mg/kg dose of compound (III) was conducted. All waveforms were examined for gross changes in waveform morphology and arrhythmogenesis.

human hepG2 hepatocytes = assay: In vitro hepatotoxicity, resazurin and Nile Red staining; assay type: cell-based; details: 100 μM
Experimental: In one experiment, hepatotoxicity was estimated by overnight incubation of compounds at 3, 10, 30, 100, or 300 μM with cultured rat or human hepG2 hepatocytes, followed by staining of the cells with resazurin to measure viability or with Nile Red to measure steatosis. The minimal drug concentration at which changes in dye binding were observed was noted as the minimal effective concentration. The compound of formula (VIII) wherein Z=3-quinolyl affected […] and steatosis in human HepG2 hepatocytes at 30 μM.

[1] = dog, intravenous 11 and 15 mg/kg

CC1CC(N(C)C)C(O)C(O[C@@H]2[C@@H](C)C(=O)[C@](C)(F)C(=O)O[C@H](CCF)[C@@]3(C)OC(=O)N[C@@H]3[C@@H](C)C(=O)[C@H](C)C[C@@]2(C)OC/C=C/c2ccc3cccnc3c2)O1 (stereo partly drawn) [Compound (III), 6-O-(1-(7-quinolyl)-3-propenyl)-11-amino-11-deoxy-3-(descladinosyl)-3-oxo-2,15-difluoroerythromycin A-11,12-cyclic carbamate]
MIC range (P. acnes; marker RNA 1058, phenotype TetR): 0.06 to 1 µg/mL
MIC range (P. acnes; marker RNA 1058/2058, phenotype TetR, EryR): 1 to 2 µg/mL
MIC range (P. acnes; marker RNA 1058/2059, phenotype TetR, EryR): 0.5 µg/mL (≈ 0.623 µM)
MIC range (P. acnes; marker RNA 2057, phenotype EryR): 0.06 µg/mL (≈ 0.0748 µM)
MIC range (P. acnes; marker RNA 2058, phenotype EryR): 0.125 to 2 µg/mL
MIC range (P. acnes; marker RNA 2058, phenotype EryR, TetR): 0.06 to 1 µg/mL
MIC range (P. acnes; marker RNA 2059, phenotype EryR): 0.125 to 2 µg/mL
MIC range (P. acnes; marker ermX, phenotype EryR): 32 to 128 µg/mL
MIC range (P. acnes; marker none, phenotype none): 0.06 µg/mL (≈ 0.0748 µM)
MIC range (P. acnes; marker unknown, phenotype ClindR): 0.06 µg/mL (≈ 0.0748 µM)
effect on mean HR (male beagle dogs; dog, intravenous 11 mg/kg): no effect
effect on the QRS duration (male beagle dogs; dog, intravenous 11 mg/kg): no effect
effect on mean HR (male beagle dogs; dog, intravenous 15 mg/kg, at the 90 and 390 time points): Significant (p<0.05) decreases in mean HR
effect on QTcF (male beagle dogs; dog, intravenous 30 mg/kg, 35 to 90 min postdose, vs time-matched vehicle): lengthening of the QTcF interval
effect on the PR interval (male beagle dogs; dog, intravenous 30 mg/kg, 150 to 390 min, p<0.05 at 390 min): increase in the PR interval
effect on HR (male beagle dogs; dog, intravenous 30 mg/kg, 390 min postdose): statistically significant (p<0.05) reduction in the HR
ABP parameters (SBP, DBP, MAP) (male beagle dogs; dog, intravenous 11, 15, and 30 mg/kg, during and up to 150 min after infusion): remained relatively unchanged
effect on the QT interval relative to the vehicle control (male beagle dogs; dog, intravenous 11, 15, or 30 mg/kg): no significant effects
effect on QTcF (male beagle dogs; [1]): no significant effects
effect on the PR interval (male beagle dogs; [1]): No significant effects
waveform morphology or ECG rhythm (male beagle dogs; dog, intravenous 11 or 15 mg/kg): no abnormalities
effect on the QRS duration (male beagle dogs; dog, intravenous 15 and 30 mg/kg, pre-drug baseline also lower): Significant (p<0.05) decreases in QRS duration
RR interval (male beagle dogs; dog, intravenous, study period): remained relatively unchanged
heart rate-corrected QT interval (QTc), FIG. 6 (male beagle dogs; male beagle dogs, intravenous infusion 11 mg/kg or 15.8 mg/kg over 30 minutes): No significant increase in QTc
effect relative to vehicle (male beagle dogs; telemetered dogs, 30 mg/kg): no significant effect
effects on cardiac parameters, including QT interval (male beagle dogs; telemetered dogs, intravenous infusion up to 15 mg/kg): no effects
effects on metabolic stability and steatosis (human hepG2 hepatocytes): No effects
